Measured values reported in article PMC10145814 (Viruses, 2023).

Molecular target: T1, PI4KB (Homo sapiens, UniProt Q9UBF8)
T1 construct: purified GST-PI4KB (PV5277, Thermo Fisher)
Format: biochemical

T1 sequence (Q9UBF8 2-816): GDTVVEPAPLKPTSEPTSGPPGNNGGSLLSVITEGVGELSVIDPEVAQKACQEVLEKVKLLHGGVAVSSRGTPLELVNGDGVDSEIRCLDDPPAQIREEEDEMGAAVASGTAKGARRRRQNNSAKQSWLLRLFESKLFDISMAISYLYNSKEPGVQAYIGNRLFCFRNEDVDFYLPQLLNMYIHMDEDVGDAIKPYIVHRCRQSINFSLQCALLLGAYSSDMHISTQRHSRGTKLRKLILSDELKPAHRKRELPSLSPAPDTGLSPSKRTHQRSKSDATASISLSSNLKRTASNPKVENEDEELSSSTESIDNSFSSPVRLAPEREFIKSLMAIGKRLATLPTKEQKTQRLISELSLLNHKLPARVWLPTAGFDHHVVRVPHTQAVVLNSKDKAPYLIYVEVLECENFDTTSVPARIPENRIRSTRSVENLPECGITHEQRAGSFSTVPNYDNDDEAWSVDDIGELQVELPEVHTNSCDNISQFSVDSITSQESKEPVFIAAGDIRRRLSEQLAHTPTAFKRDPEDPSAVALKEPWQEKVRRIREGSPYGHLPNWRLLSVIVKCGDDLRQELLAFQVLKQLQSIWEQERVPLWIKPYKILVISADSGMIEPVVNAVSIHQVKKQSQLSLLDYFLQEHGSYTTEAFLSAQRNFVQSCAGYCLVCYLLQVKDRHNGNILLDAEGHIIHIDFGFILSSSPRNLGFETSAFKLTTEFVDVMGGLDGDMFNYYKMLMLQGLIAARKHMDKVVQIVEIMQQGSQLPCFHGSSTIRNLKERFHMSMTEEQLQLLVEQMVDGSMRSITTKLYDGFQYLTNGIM

## COc1cc(/C=C/C(=O)OC[C@H]2O[C@H](O[C@]3(COC(=O)/C=C/c4ccc(O)cc4)O[C@H](COC(=O)/C=C/c4ccc(O)cc4)[C@@H](O)[C@@H]3OC(=O)/C=C/c3ccc(O)cc3)[C@H](O)[C@@H](O)[C@@H]2O)ccc1O [VCB, vanicoside B]
  IC50: 5 µM
